In the assay the target is PRMT5/MEP50 (Homo sapiens (Human), UniProt O14744). The experiment in a line: PRMT5 Biochemical Assay (PRMT5/MEP50 enzyme assay on peptide substrate, 3H-SAM Flashplate). Particulars: PRMT5 biochemical assay; read-out: Biochemical IC50. The text has this:
S-adenosylmethionine (SAM), S-adenosylhomocysteine (SAH), bicine, KCl, Tween20, dimethylsulfoxide (DMSO), bovine skin gelatin (BSG), and Tris(2-carboxyethyl)phosphine hydrochloride solution (TCEP) were purchased from Sigma-Aldrich at the highest level of purity possible. ^3H-SAM was purchase from American Radiolabeled Chemicals with a specific activity of 80 Ci/mmol. 384-well streptavidin Flashplates were purchased from PerkinElmer.
Peptide representative of human histone H4 residues 1-15 was synthesized with a C-terminal linker-affinity tag motif and a C-terminal amide cap by 21st Century Biochemicals. […] The sequence was Ac-[…][K-Biot]-amide (SEQ ID NO.:3).
Full-length human MEP50 (NM_024102) clone was amplified from a human testis cDNA library incorporating a 5′ sequence encoding a 6-histidine tag (MHHHHHH)(SEQ ID NO.:5) fused directly to Arg 2 of MEP50. The amplified genes were sublconed into pENTR/D/TEV (Life Technologies) and subsequently transferred by Gateway™ attL×attR recombination to pDEST8 baculvirus expression vector (Life Technologies).
Recombinant baculovirus and Baculovirus-Infected Insect Cells (BIIC) were generated according to Bac-to-Bac kit instructions (Life Technologies) and Wasilko, 2006, respectively. Protein over-expression was accomplished by infecting exponentially growing Spodoptera frugiperda (SF9) cell culture at 1.2×10^6 cell/ml with a 5000 fold dilution of BIIC stock. Infections were carried out at 27° C. for 72 hours, harvested by centrifugation, and stored at −80° C. for purification.
Flag-PRMT5/6His-MeP50 was eluted with 300 mM Imidazole in the same buffer. […] Reference: Wasilko, D. J. and S. E. Lee: “TIPS: titerless infected-cells preservation and scale-up” Bioprocess J., 5 (2006), pp. 29-32.
General Procedure for PRMT5/MEP50 Enzyme Assays on Peptide Substrates.
The assays were all performed in a buffer consisting of 20 mM Bicine (pH=7.6), 1 mM TCEP, 0.005% BSG, and 0.002% Tween20, prepared on the day of use. Compounds in 100% DMSO (1 ul) were spotted into a polypropylene 384-well V-bottom plates (Greiner) using a Platemate Plus outfitted with a 384-channel head (Thermo Scientific). DMSO (1 ul) was added to Columns 11, 12, 23, 24, rows A-H for the maximum signal control and 1 ul of SAH, a known product and inhibitor of PRMT5/MEP50, was added to columns 11, 12, 23, 24, rows I-P for the minimum signal control. A cocktail (40 ul) containing the PRMT5/MEP50 enzyme and the peptide was added by Multidrop Combi (Thermo-Fisher). The compounds were allowed to incubate with PRMT5/MEP50 for 30 min at 25 degrees Celsius, then a cocktail (10 ul) containing ^3H-SAM was added to initiate the reaction (final volume=51 ul).
Sequence of PRMT5/MEP50 (O14744 other isoform, or with tags, fused parts or gaps): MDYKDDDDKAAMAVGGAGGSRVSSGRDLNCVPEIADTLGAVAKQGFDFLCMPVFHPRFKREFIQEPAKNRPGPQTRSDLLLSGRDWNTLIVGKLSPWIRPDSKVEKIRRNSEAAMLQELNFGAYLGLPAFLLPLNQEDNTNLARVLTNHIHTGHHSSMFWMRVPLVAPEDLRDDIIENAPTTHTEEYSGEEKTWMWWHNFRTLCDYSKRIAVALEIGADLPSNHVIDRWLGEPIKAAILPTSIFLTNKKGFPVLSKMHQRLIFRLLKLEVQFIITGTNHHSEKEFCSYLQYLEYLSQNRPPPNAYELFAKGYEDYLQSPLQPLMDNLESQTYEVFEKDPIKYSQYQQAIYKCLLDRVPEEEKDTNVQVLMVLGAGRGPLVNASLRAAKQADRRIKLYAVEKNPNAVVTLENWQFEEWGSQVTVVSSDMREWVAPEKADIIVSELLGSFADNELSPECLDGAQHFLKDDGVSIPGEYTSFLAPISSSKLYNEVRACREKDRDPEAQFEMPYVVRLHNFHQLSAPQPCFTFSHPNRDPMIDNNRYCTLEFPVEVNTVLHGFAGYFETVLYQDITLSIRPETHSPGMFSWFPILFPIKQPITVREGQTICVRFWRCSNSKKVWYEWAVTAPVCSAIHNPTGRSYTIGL
Sequence of PRMT5/MEP50 (Q9BQA1 other isoform, or with tags, fused parts or gaps partner): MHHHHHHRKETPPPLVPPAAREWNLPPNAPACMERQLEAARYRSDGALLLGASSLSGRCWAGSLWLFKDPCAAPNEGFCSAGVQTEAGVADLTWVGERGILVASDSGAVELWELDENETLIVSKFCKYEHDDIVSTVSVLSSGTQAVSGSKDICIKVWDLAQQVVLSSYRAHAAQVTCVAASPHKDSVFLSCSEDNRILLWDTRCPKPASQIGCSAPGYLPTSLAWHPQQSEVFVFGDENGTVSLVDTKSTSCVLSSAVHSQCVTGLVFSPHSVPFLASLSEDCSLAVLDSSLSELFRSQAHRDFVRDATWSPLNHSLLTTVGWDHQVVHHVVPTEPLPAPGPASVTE
Consider `Cn1cncc1-c1ccccc1OCC(=O)NCC(O)CN1CCc2ccccc2C1` (centres unmarked) [Compound 156], for which the IC50 lay in the range of 1000 to 10000 nM.
For `O=C(NC[C@H](O)CN1CCc2ccccc2C1)[C@@H]1C[C@@H]2CCCC[C@@H]2N1` [Compound 184] the value was 1000 to 10000 nM; for `CN(C)S(=O)(=O)c1ccccc1OCC(=O)NCC(O)CN1CCc2ccccc2C1` (centres unmarked) [Compound 109], less than 100 nM.
As for `O=C(COc1ccccc1S(=O)(=O)N1CCOCC1)NCC(O)CN1CCc2ccccc2C1` (centres unmarked) [Compound 149], the figure is less than 100 nM; as for `O=C(COc1cccc2c1CNCC2)NCC(O)CN1CCc2ccccc2C1` (centres unmarked) [Compound 119], less than 100 nM.
As for `Cc1cn(C)c2cccc(OCC(=O)NC[C@@H](O)CN3CCc4ccccc4C3)c12` [Compound 164], the figure is less than 100 nM.
Regarding `O=C(CCc1nc2ccccc2[nH]1)NC[C@H](O)CN1CCc2ccccc2C1` [Compound 175, (S)-3-(1H-benzo[d]imidazol-2-yl)-N-(3-(3,4-dihydroisoquinolin-2(1H)-yl)-2-hydroxypropyl)propanamide], the IC50 was less than 100 nM.
As for `CC(Oc1ccccc1S(N)(=O)=O)C(=O)NCC(O)CN1CCc2ccccc2C1` (centres unmarked) [Compound 126], the figure is more than 50000 nM; as for `O=C(COc1cccc2c1CCNC2)NCC(O)CN1CCc2ccccc2C1` (centres unmarked) [Compound 91], less than 100 nM; as for `Cc1cccc(OCC(=O)NCC(O)CN2CCc3ccccc3C2)c1` (centres unmarked) [Compound 26], less than 100 nM.
For `O=C(COc1cccc(-c2ncc[nH]2)c1)NC[C@@H](O)CN1CCc2ccccc2C1` [Compound 186] the value was 1000 to 10000 nM; for `O=C(COc1cccc2c1OCCO2)NCC(O)CN1CCc2ccccc2C1` (centres unmarked) [Compound 100], less than 100 nM.
As for `O=C(COc1cccc2c1CCCC2)NCC(O)CN1CCc2ccccc2C1` (centres unmarked) [Compound 64], the figure is less than 100 nM; as for `CN1CCN(S(=O)(=O)c2ccccc2OCC(=O)NCC(O)CN2CCc3ccccc3C2)CC1` (centres unmarked) [Compound 108], less than 100 nM; as for `O=C(NC[C@H](O)CN1CCc2ccccc2C1)[C@H]1Cc2ccccc2CN1` [Compound 185], 101 to 1000 nM.
Turning to `COc1ccc2cccc(OCC(=O)NC[C@@H](O)CN3CCc4ccccc4C3)c2n1` [Compound 98, (R)—N-(3-(3,4-dihydroisoquinolin-2(1H)-yl)-2-hydroxypropyl)-2-((2-methoxyquinolin-8-yl)oxy)acetamide], the IC50 is less than 100 nM.
As for `O=C(CC1Cc2ccccc2C1)NC[C@H](O)CN1CCc2ccccc2C1` [Compound 179], the figure is 101 to 1000 nM.
For `O=C(COc1ccccc1N1CCOCC1)NC[C@H](O)CN1CCc2ccccc2C1` [Compound 77] the value was less than 100 nM; for `CN(C)CCOc1ccccc1OCC(=O)NC[C@H](O)CN1CCc2ccccc2C1` [Compound 88], less than 100 nM.
As for `CC(=O)Nc1cccnc1OCC(=O)NCC(O)CN1CCc2ccccc2C1` (centres unmarked) [Compound 128], the figure is more than 50000 nM; as for `O=C(COc1cccc2ccc(N3CCOCC3)nc12)NCC(O)CN1CCc2ccccc2C1` (centres unmarked) [Compound 48, N-(3-(3,4-dihydroisoquinolin-2(1H)-yl)-2-hydroxypropyl)-2-((2-morpholinoquinolin-8-yl)oxy)acetamide], less than 100 nM.
With `CS(=O)(=O)c1cccc(OCC(=O)NCC(O)CN2CCc3ccccc3C2)c1` (centres unmarked) [Compound 47], the IC50 was less than 100 nM.
Take `CN(C)c1ccc2cccc(OCC(=O)NC[C@@H](O)CN3CCc4ccccc4C3)c2n1` [Compound 105]: the IC50 is less than 100 nM.
For `O=C(COc1c(CN2CCOCC2)ccc2cccnc12)NC[C@H](O)CN1CCc2ccccc2C1` [Compound 94] the value was less than 100 nM; for `CC(=O)N1CCN(c2ccccc2OCC(=O)NCC(O)CN2CCc3ccccc3C2)CC1` (centres unmarked) [Compound 90], less than 100 nM.
As for `CN1CCCC(c2ccccc2OCC(=O)NCC(O)CN2CCc3ccccc3C2)C1` (centres unmarked) [Compound 130], the figure is less than 100 nM.
As for `O=C(CC1CCc2ccccc21)NC[C@H](O)CN1CCc2ccccc2C1` (some centres unmarked) [Compound 178], the figure is 101 to 1000 nM.
On to `O=C(COc1ccccc1S(=O)(=O)N1CCNCC1)NCC(O)CN1CCc2ccccc2C1` (centres unmarked) [Compound 107], for which the IC50 is less than 100 nM.
For `O=C(CCc1nc2ccccc2[nH]1)NC[C@@H](O)CN1CCc2ccccc2C1` [Compound 192, (R)-3-(1H-benzo[d]imidazol-2-yl)-N-(3-(3,4-dihydroisoquinolin-2(1H)-yl)-2-hydroxypropyl)propanamide] the value was 101 to 1000 nM.
For `O=C(COc1ccccc1C1CCNCC1)NCC(O)CN1CCc2ccccc2C1` (centres unmarked) [Compound 103] the value was less than 100 nM; for `CC(Oc1cccc2cccnc12)C(=O)NCC(O)CN1CCc2ccccc2C1` (centres unmarked) [Compound 39, N-(3-(3,4-dihydroisoquinolin-2(1H)-yl)-2-hydroxypropyl)-2-(quinolin-8-yloxy)propanamide], less than 100 nM; for `O=C(COc1cccc(CN2CCOCC2)c1)NCC(O)CN1CCc2ccccc2C1` (centres unmarked) [Compound 75], less than 100 nM.
As for `O=C(COC1CCOC1)NCC(O)CN1CCc2ccccc2C1` (centres unmarked) [Compound 171], the figure is 1000 to 10000 nM; as for `Cn1ncc2c(OCC(=O)NCC(O)CN3CCc4ccccc4C3)cccc21` (centres unmarked) [Compound 82], less than 100 nM.
Turning to `NS(=O)(=O)c1ccccc1OCC(=O)NCC(O)CN1CCc2ccccc2C1` (centres unmarked) [Compound 65], the IC50 is less than 100 nM.
As for `CN1CCN(CCOCC(=O)NCC(O)CN2CCc3ccccc3C2)CC1` (centres unmarked) [Compound 176], the IC50 fell in the range of 1000 to 10000 nM.
As for `CS(=O)(=O)N1CCc2c(cccc2OCC(=O)NCC(O)CN2CCc3ccccc3C2)C1` (centres unmarked) [Compound 102, N-(3-(3,4-dihydroisoquinolin-2(1H)-yl)-2-hydroxypropyl)-2-((2-(methylsulfonyl)-1,2,3,4-tetrahydroisoquinolin-5-yl)oxy)acetamide], the figure is less than 100 nM; as for `CN1CC[C@@H](CN(C)S(=O)(=O)c2ccccc2OCC(=O)NC[C@@H](O)CN2CCc3ccccc3C2)C1` [Compound 272], less than 100 nM; as for `Nc1ncnc2c(OCC(=O)NCC(O)CN3CCc4ccccc4C3)cccc12` (centres unmarked) [Compound 168], less than 100 nM.
As for `O=C(COc1cccc2ccccc12)NCC(O)CN1CCc2ccccc2C1` (centres unmarked) [Compound 66, N-(3-(3,4-dihydroisoquinolin-2(1H)-yl)-2-hydroxypropyl)-2-(naphthalen-1-yloxy)acetamide], the figure is less than 100 nM.
As for `O=C(COc1cccc(C(=O)NCCn2ccnc2)c1)NC[C@@H](O)CN1CCc2ccccc2C1` [Compound 230], the figure is 1000 to 10000 nM.
As for `O=C(COc1ccccc1S(=O)(=O)N1CCC(O)C1)NCC(O)CN1CCc2ccccc2C1` (centres unmarked) [Compound 111], the IC50 was less than 100 nM.
For `Cc1cn(C)c2cccc(OCC(=O)NCC(O)CN3CCc4ccccc4C3)c12` (centres unmarked) [Compound 146] the value was less than 100 nM; for `O=C(CCn1cnc2ccccc21)NC[C@H](O)CN1CCc2ccccc2C1` [Compound 248], 1000 to 10000 nM.
With `CN(C)c1ccccc1OCC(=O)NCC(O)CN1CCc2ccccc2C1` (centres unmarked) [Compound 38], the half-maximal inhibitory concentration (IC50) was less than 100 nM.
In the case of `O=C(COc1cccc2cccnc12)NCC(O)CN1Cc2ccccc2C(F)(F)C1` (centres unmarked) [Compound 144], the IC50 is more than 10000 nM.
As for `CN(C)c1cccnc1OCC(=O)NCC(O)CN1CCc2ccccc2C1` (centres unmarked) [Compound 133], the figure is more than 10000 nM.
Take `CS(=O)(=O)Nc1ccccc1OCC(=O)NCC(O)CN1CCc2ccccc2C1` (centres unmarked) [Compound 53]: the IC50 was less than 100 nM.
As for `CC(C)(Oc1cccc2cccnc12)C(=O)NCC(O)CN1CCc2ccccc2C1` (centres unmarked) [Compound 43, N-(3-(3,4-dihydroisoquinolin-2(1H)-yl)-2-hydroxypropyl)-2-methyl-2-(quinolin-8-yloxy)propanamide], the figure is less than 100 nM.
For `COc1ccccc1OCC(=O)NCC(O)CN1CCc2ccccc2C1` (centres unmarked) [Compound 22] the value was less than 100 nM.
As for `O=C(COc1cccc2cncnc12)NCC(O)CN1CCc2ccccc2C1` (centres unmarked) [Compound 181], the figure is less than 100 nM; as for `Cn1ncc2ccc(OCC(=O)NC[C@@H](O)CN3CCc4ccccc4C3)cc21` [Compound 160], 101 to 1000 nM.
Regarding `O=C(COc1nc2ccccc2[nH]1)NC[C@@H](O)CN1CCc2ccccc2C1` [Compound 212], the IC50 was in the range of 1000 to 10000 nM.

The values are drawn from patent US9745291B2, “PRMT5 inhibitors containing a dihydro- or tetrahydroisoquinoline and uses thereof” (Epizyme, Inc., priority 2012, dated 2017).
